Experimental data reported in US8617542B2, “DispersinB™, 5-fluorouracil, deoxyribonuclease I and proteinase K-based antibiofilm compositions and uses thereof” (Kane Biotech Inc., priority 2008, dated 2013).
≈ marks a conversion by molar mass, not a printed value.

How the values were obtained:
Type in all cases: cell-based
Staphylococcus aureus = test: MIC in 96 well microtiter plate, S. aureus; conditions: TSB, 5×10^5 CFU/mL, 37° C.
Description: (§1) The antimicrobial activity of 5-fluorouracil (FU) was studied by determining minimal inhibitory concentrations (MIC) in a 96 well microtiter plate. Briefly, serial two-fold dilutions of FU were performed in TSB. A suspension of each microorganism from Table 1 was added to wells at a concentration of 5×10^5 CFU/mL, and the microtiter plates were incubated at 37° C. The MIC was defined, as the lowest concentration of an antimicrobial required for total inhibition of a test microorganism at 37° C. 5-Fluorouracil was active against all the pathogens tested (Table 1).

Pseudomonas aeruginosa = test: MIC in 96 well microtiter plate, P. aeruginosa; conditions: TSB, 5×10^5 CFU/mL, 37° C.
Description: as §1

Burkholderia cepacia = test: MIC in 96 well microtiter plate, B. cepacia; conditions: TSB, 5×10^5 CFU/mL, 37° C.
Description: as §1

[1] = test system: cystic fibrosis-associated pathogens; test: antimicrobial activity (MIC) against all pathogens tested; conditions: pathogens of Table 1
Description: as §1

In the case of `O=c1[nH]cc(F)c(=O)[nH]1` [5-Fluorouracil, 5-fluoro-2,4(1H,3H)-Pyrimidinedione], the MIC (Staphylococcus aureus) is reported as 25 µg/mL (≈ 192 µM), the MIC (Pseudomonas aeruginosa) is reported as 31.2 µg/mL (≈ 240 µM) and the MIC (Burkholderia cepacia) is reported as 62.5 µg/mL (≈ 480 µM). The “antimicrobial activity against all the pathogens tested” value [1] was “active”.
